Measured values from patent US10179771B2 (GALAPAGOS NV, priority 2014, dated 2019).

Molecular target: T1, Recombinant human JAK1 catalytic domain (Homo sapiens, UniProt P23458)
T1 construct: Recombinant human JAK1 (catalytic domain, amino acids 866-1154; catalog number PV4774); purchased Invitrogen PV4774
Assay: JAK1 inhibition assay (polyGT substrate / Ulight-JAK1 peptide assay)
Assay type: biochemical
Description: Recombinant human JAK1 catalytic domain (amino acids 850-1154; catalog number 08-144) was purchased from Carna Biosciences. 10 ng of JAK1 is incubated with 12.5 μg polyGT substrate (Sigma catalog number P0275) in kinase reaction buffer (15 mM Tris-HCl pH 7.5, 1 mM DTT, 0.01% Tween-20, 10 mM MgCl2, 2 μM non-radioactive ATP, 0.25 ρCi ^33P-gamma-ATP (GE Healthcare, catalog number AH9968) final concentrations) with or without 5 μL containing test compound or vehicle (DMSO, 1% final concentration), in a total volume of 25 μL, in a polypropylene 96-well plate (Greiner, V-bottom). After 45 min at 30° C., reactions are stopped by adding of 25 μL/well of 150 mM phosphoric acid. All of the terminated kinase reaction is transferred to prewashed (75 mM phosphoric acid) 96 well filter plates (Perkin Elmer catalog number 6005177) using a cell harvester (Perkin Elmer). Plates are washed 6 times with 300 μL per well of a 75 mM phosphoric acid solution and the bottom of the plates is sealed. 40 μL/well of Microscint-20 is added, the top of the plates is sealed and readout is performed using the Topcount (Perkin Elmer). Kinase activity is calculated by subtracting counts per min (cpm) obtained in the presence of a positive control inhibitor (10 μM staurosporine) from cpm obtained in the presence of vehicle. The ability of a test compound to inhibit this activity is determined as:
[formula] • RFU test compound=RFU determined for sample with test compound present • RFU control=RFU determined for sample with positive control inhibitor • RFU vehicle=RFU determined in the presence of vehicle
Dose dilution series are prepared for the compounds enabling the testing of dose-response effects in the JAK1 assay and the calculation of the IC50 for each compound. Each compound is routinely tested at concentration of 20 μM followed by a 1/3 serial dilution, 8 points (20 μM-6.67 μM-2.22 μM-740 nM-247 nM-82 nM-27 nM-9 nM) in a final concentration of 1% DMSO. When potency of compound series increased, more dilutions are prepared and/or the top concentration was lowered (e.g. 5 μM, 1 μM).
Recombinant human JAK1 (catalytic domain, amino acids 866-1154; catalog number PV4774) was purchased from Invitrogen. 1 ng of JAK1 was incubated with 20 nM Ulight-JAK1 (tyr1023) peptide (Perkin Elmer catalog number TRF0121) in kinase reaction buffer (25 mM MOPS pH6.8, 0.01% Brij-35, 5 mM MgCl2, 2 mM DTT, 7 μM ATP) with or without 4 μL containing test compound or vehicle (DMSO, 1% final concentration), in a total volume of 20 μL, in a white 384 Opti plate (Perkin Elmer, catalog number 6007290). After 60 min at room temperature, reactions were stopped by adding 20 μL/well of detection mixture (1× detection buffer (Perkin Elmer, catalog number CR97-100C), 0.5 nM Europium-anti-phosphotyrosine (PT66) (Perkin Elmer, catalog number AD0068), 10 mM EDTA). Readout is performed using the Envision with excitation at 320 nm and measuring emission at 615 nm (Perkin Elmer). Kinase activity was calculated by subtracting relative fluorescence units (RFU) obtained in the presence of a positive control inhibitor (10 μM staurosporine) from RFU obtained in the presence of vehicle. The ability of a test compound to inhibit this activity was determined as: Percentage inhibition=((RFU determined for sample with test compound present−RFU determined for sample with positive control inhibitor) divided by (RFU determined in the presence of vehicle−RFU determined for sample with positive control inhibitor))*100.
Dose dilution series were prepared for the compounds enabling the testing of dose-response effects in the JAK1 assay and the calculation of the IC50 for the compound. Each compound is routinely tested at concentration of 20 μM followed by a 1/5 serial dilution, 10 points in a final concentration of 1% DMSO. When potency of compound series increases, more dilutions are prepared and/or the top concentration are lowered (e.g. 5 μM, 1 μM). […]

[1] = Illustrative Compounds of the invention (Table V)

T1 sequence (P23458 866-1154): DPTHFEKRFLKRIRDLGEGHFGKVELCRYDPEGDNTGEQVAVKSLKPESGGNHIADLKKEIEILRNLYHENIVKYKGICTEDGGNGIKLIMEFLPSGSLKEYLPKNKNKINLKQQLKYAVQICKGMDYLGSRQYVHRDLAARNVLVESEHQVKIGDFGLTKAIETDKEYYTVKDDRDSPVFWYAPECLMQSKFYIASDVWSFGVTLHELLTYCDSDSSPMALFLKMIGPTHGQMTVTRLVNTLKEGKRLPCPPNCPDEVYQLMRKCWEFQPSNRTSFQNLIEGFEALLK

IC50 [1] [nM]	IC50 (Comparative Compounds (Table VI)) [nM]	SMILES
0.1 to 50	–	CNC(=O)Nc1cc(Oc2cnc(C#N)cc2C)cc2c1ncn2C
0.1 to 50	–	CCc1cc(C#N)cc(F)c1N(C)c1cc(NC(=O)[C@@H]2C[C@@H]2F)c2ncn(C)c2c1 (racemic) [Cpd 7, N-(6-((4-cyano-2-ethyl-6-fluorophenyl)(methyl)amino)-1-methyl-1H-benzo[d]imidazol-4-yl)-2-fluorocyclopropanecarboxamide (1S,2S)/(1R,2R) racemic mixture]
–	> 500	CN(c1ccc2ncn(C)c2c1)c1ccc(C#N)cc1F [C, 3-fluoro-4-[methyl-(3-methylbenzimidazol-5-yl)amino]benzonitrile, reference compound]
0.1 to 50	–	CCc1cc(C#N)ncc1N(C)c1cc(NC(=O)C2CC2)c2ncn(C)c2c1 [Cpd 1, N-(6-((6-cyano-4-ethylpyridin-3-yl)(methyl)amino)-1-methyl-1H-benzo[d]imidazol-4-yl)cyclopropanecarboxamide]
0.1 to 50	–	CCc1cc(C#N)cc(F)c1Nc1cc(NC(=O)C2CC2)c2ncn(C)c2c1 [Cpd 2, N-(6-(4-cyano-2-ethyl-6-fluorophenylamino)-1-methyl-1H-benzo[d]imidazol-4-yl)cyclopropanecarboxamide]
0.1 to 50	–	CCc1cc(C#N)cc(F)c1N(C)c1cc(NC(=O)C2CC2)c2ncn(C)c2c1 [Cpd 3, N-(6-((4-cyano-2-ethyl-6-fluorophenyl)(methyl)amino)-1-methyl-1H-benzo[d]imidazol-4-yl)cyclopropanecarboxamide]
0.1 to 50	–	CCc1cc(C#N)ncc1N(C)c1cc(NC(=O)OC)c2ncn(C)c2c1 [Cpd 4, methyl 6-((6-cyano-4-ethylpyridin-3-yl)(methyl)amino)-1-methyl-1H-benzo[d]imidazol-4-ylcarbamate]
0.1 to 50	–	CCc1cc(C#N)cc(F)c1N(C)c1cc(NC(=O)OC)c2ncn(C)c2c1 [Cpd 5, methyl 6-((4-cyano-2-ethyl-6-fluorophenyl)(methyl)amino)-1-methyl-1H-benzo[d]imidazol-4-ylcarbamate]
0.1 to 50	–	CCc1cc(C#N)ncc1Oc1cc(NC(=O)[C@H]2C[C@H]2F)c2ncn(C)c2c1 [Cpd 6, (1R,2R)-N-[6-[(6-cyano-4-ethyl-3-pyridyl)oxy]-1-methyl-benzimidazol-4-yl]-2-fluoro-cyclopropanecarboxamide]
0.1 to 50	–	CCc1cc(C#N)ncc1N(C)c1cc(NC(=O)[C@H]2C[C@H]2F)c2ncn(C)c2c1 [Cpd 8, (1R,2R)-N-(6-((6-cyano-4-ethylpyridin-3-yl)(methyl)amino)-1-methyl-1H-benzo[d]imidazol-4-yl)-2-fluorocyclopropanecarboxamide]
0.1 to 50	–	Cc1cc(C#N)ncc1N(C)c1cc(NC(=O)[C@H]2C[C@H]2F)c2ncn(C)c2c1 [Cpd 9, (1R,2R)-N-(6-((6-cyano-4-methylpyridin-3-yl)(methyl)amino)-1-methyl-1H-benzo[d]imidazol-4-yl)-2-fluorocyclopropanecarboxamide]
0.1 to 50	–	CCc1cc(C#N)ccc1Oc1cc(NC(=O)[C@H]2C[C@H]2F)c2ncn(C)c2c1 [Cpd 10, (1R,2R)-N-[6-(4-cyano-2-ethyl-phenoxy)-1-methyl-benzimidazol-4-yl]-2-fluoro-cyclopropanecarboxamide]
0.1 to 50	–	CN(c1cc(NC(=O)[C@H]2C[C@H]2F)c2ncn(C)c2c1)c1c(F)cc(C#N)cc1Cl [Cpd 11, (1R,2R)-N-[6-(2-chloro-4-cyano-6-fluoro-N-methyl-anilino)-1-methyl-benzimidazol-4-yl]-2-fluoro-cyclopropanecarboxamide]
0.1 to 50	–	Cc1cc(F)ncc1N(C)c1cc(NC(=O)[C@H]2C[C@H]2F)c2ncn(C)c2c1 [Cpd 12, (1R,2R)-2-fluoro-N-[6-[(6-fluoro-4-methyl-3-pyridyl)-methyl-amino]-1-methyl-benzimidazol-4-yl]cyclopropanecarboxamide]
50 to 100	–	CN(c1cc(NC(=O)[C@H]2C[C@H]2F)c2ncn(C)c2c1)c1ccc(F)nc1F [Cpd 13, (1R,2R)-N-[6-[(2,6-difluoro-3-pyridyl)-methyl-amino]-1-methyl-benzimidazol-4-yl]-2-fluoro-cyclopropanecarboxamide]
